Earlier results on one compound are cited in patent US20060013862A1, “Onychomycosis: a new process for cure” (priority 2004, published 2006).

The subject of the series is onychomycosis.
The mark [1] stands for this setting: itraconazole vs terbinafine-treated patients.

For `CN(C/C=C/C#CC(C)(C)C)Cc1cccc2ccccc12` [terbinafine], under setting [1], the Mycological relapse rate is listed as 23% and the clinical relapse rate is recorded as 21%. Moreover, where the note is “share of treated subjects (34 of 74 terbinafine)”, the “Mycological cure without second intervention treatment” value is on record as 46%.
